Earlier results in patent US9744133B2, “Enhanced stability of novel liquid compositions” (Pfizer Inc., priority 2013, dated 2017).

Details: 25° C.

Solubility in water: approximately 4 % by weight
SMILES: COc1ccccc1OCC(O)CO (stereo not shown) [Guaifenesin]
